Experiments:
Format in all cases: in vivo
[1] = tested on: Plutella xylostella (diamondback moth); assay: Example B10: Plutella xylostella (diamondback moth), 96-well artificial diet; conditions: 216 h, application rate of 500 ppm, 9 days after infestation, eggs/L1 larvae
Method: Example B10: Plutella xylostella (Diamondback Moth)
96-well microtiter plates containing artificial diet were treated with aqueous test solutions, prepared from 10′000 ppm DMSO stock solutions, by a liquid handling robot. After drying, eggs (˜30 per well) were infested onto a netted lid which was suspended above the diet. The eggs hatch and L1 larvae move down to the diet. The samples were assessed for mortality 9 days after infestation.

[2] = tested on: Chilo suppressalis (striped rice stemborer); assay: Example B4: Chilo suppressalis (striped rice stemborer), artificial diet, L2 larvae; conditions: 144 h, application rate of 200 ppm, 6 days after infestation, L2 larvae on artificial diet, read-out: control in at least one of the three categories (mortality, anti-feeding or growth inhibition)
Method: Example B4: Chilo suppressalis (Striped rice stemborer)
24-well microtiter plates with artificial diet were treated with aqueous test solutions prepared from 10′000 ppm DMSO stock solutions by pipetting. After drying, the plates were infested with L2 larvae (6-8 per well). The samples were assessed for mortality, anti-feeding effect, and growth inhibition in comparison to untreated samples 6 days after infestation. Control of Chilo suppressalis by a test sample is given when at least one of the categories mortality, anti-feedant effect, and growth inhibition is higher than the untreated sample.

[3] = tested on: Plutella xylostella (diamond back moth); assay: Example B5: Plutella xylostella (diamond back moth), artificial diet, 24-well, eggs; conditions: 192 h, application rate of 200 ppm, 8 days after infestation, read-out: control in at least one of the two categories (mortality or growth inhibition)
Method: Example B5: Plutella xylostella (Diamond Back Moth)
24-well microtiter plates with artificial diet were treated with aqueous test solutions prepared from 10′000 ppm DMSO stock solutions by pipetting. After drying, Plutella eggs were pipetted through a plastic stencil onto a gel blotting paper and the plate was closed with it. The samples were assessed for mortality and growth inhibition in comparison to untreated samples 8 days after infestation.

[4] = tested on: Tetranychus urticae (two-spotted spider mite); assay: Example B11: Tetranychus urticae (two-spotted spider mite), feeding/contact activity; conditions: foliar, 192 h
Method: Example B11: Tetranychus urticae (Two-Spotted Spider Mite): Feeding/Contact Activity
Bean leaf discs on agar in 24-well microtiter plates were sprayed with aqueous test solutions prepared from 10′000 ppm DMSO stock solutions. After drying the leaf discs were infested with a mite population of mixed ages. The samples were assessed for mortality on mixed population (mobile stages) 8 days after infestation.

[5] = tested on: Spodoptera littoralis (Egyptian cotton leaf worm); assay: Example B7: Spodoptera littoralis (Egyptian cotton leaf worm), sprayed cotton leaf discs, L1 larvae; conditions: foliar, 72 h, application rate of 200 ppm, 3 days after infestation, L1 larvae on cotton leaf discs, read-out: control in at least one of the three categories (mortality, anti-feeding or growth inhibition)
Method: Example B7: Spodoptera littoralis (Egyptian Cotton Leaf Worm)
Cotton leaf discs were placed onto agar in 24-well microtiter plates and sprayed with aqueous test solutions prepared from 10′000 ppm DMSO stock solutions. After drying the leaf discs were infested with five L1 larvae. The samples were assessed for mortality, anti-feeding effect, and growth inhibition in comparison to untreated samples 3 days after infestation. Control of Spodoptera littoralis by a test sample is given when at least one of the categories mortality, anti-feedant effect, and growth inhibition is higher than the untreated sample.

[6] = tested on: Diabrotica balteata (corn root worm); assay: Example B1: Diabrotica balteata (corn root worm), sprayed maize sprouts, L2 larvae; conditions: 96 h, application rate of 200 ppm, 4 days after infestation, L2 larvae on maize sprouts, read-out: control in at least one of the two categories (mortality or growth inhibition)
Method: Example B1: Diabrotica Balteata (Corn Root Worm)
Maize sprouts placed onto an agar layer in 24-well microtiter plates were treated with aqueous test solutions prepared from 10′000 ppm DMSO stock solutions by spraying. After drying, the plates were infested with L2 larvae (6 to 10 per well). The samples were assessed for mortality and growth inhibition in comparison to untreated samples 4 days after infestation.

[7] = tested on: Euschistus heros (neotropical brown stink bug); assay: Example B2: Euschistus heros (neotropical brown stink bug), sprayed soybean leaves, N2 nymphs; conditions: 120 h, application rate of 200 ppm, 5 days after infestation, N2 nymphs on soybean leaves, read-out: control in at least one of the two categories (mortality or growth inhibition)
Method: Example B2: Euschistus heros (Neotropical Brown Stink Bug)
Soybean leaves on agar in 24-well microtiter plates were sprayed with aqueous test solutions prepared from 10′000 ppm DMSO stock solutions. After drying the leaves were infested with N2 nymphs. The samples were assessed for mortality and growth inhibition in comparison to untreated samples 5 days after infestation.

[8] = tested on: Myzus persicae (green peach aphid); assay: Example B9: Myzus persicae (green peach aphid), 96-well sucrose solution; conditions: 120 h, application rate of 50 ppm, 5 days after infestation
From the text: Example B9: Myzus persicae (Green Peach Aphid)
Test compounds prepared from 10′000 ppm DMSO stock solutions were applied by a liquid handling robot into 96-well microtiter plates and mixed with a sucrose solution. Parafilm was stretched over the 96-well microtiter plate and a plastic stencil with 96 holes was placed onto the plate. Aphids were sieved into the wells directly onto the Parafilm. The infested plates were closed with a gel blotting card and a second plastic stencil and then turned upside down. The samples were assessed for mortality 5 days after infestation.

[9] = tested on: Myzus persicae (green peach aphid); assay: Example B6: Myzus persicae (green peach aphid), intrinsic activity; conditions: 120 h, test rate of 12 ppm, 5 days after infestation, sucrose solution, infested pea seedlings
From the text: Example B6: Myzus persicae (Green Peach Aphid): Intrinsic Activity
Test compounds prepared from 10′000 ppm DMSO stock solutions were applied by pipette into 24-well microtiter plates and mixed with sucrose solution. The plates were closed with a stretched Parafilm. A plastic stencil with 24 holes was placed onto the plate and infested pea seedlings were placed directly on the Parafilm. The infested plate was closed with a gel blotting paper and another plastic stencil and then turned upside down. The samples were assessed for mortality 5 days after infestation.

[10] = tested on: Spodoptera littoralis (Egyptian cotton leaf worm); assay: Example B8: Spodoptera littoralis (Egyptian cotton leaf worm), uptake by lettuce roots from agar; conditions: 144 h, test rate of 12.5 ppm, 6 days after infestation, compound absorbed by lettuce roots, read-out: control in at least one of the three categories (mortality, anti-feeding, or growth inhibition)
From the text: Example B8: Spodoptera littoralis (Egyptian Cotton Leaf Worm)
Test compounds were applied by pipette from 10′000 ppm DMSO stock solutions into 24-well plates and mixed with agar. Lettuce seeds were placed onto the agar and the multi well plate was closed by another plate which contained also agar. After 7 days the compound was absorbed by the roots and the lettuce grew into the lid plate. The lettuce leaves were then cut off into the lid plate. Spodoptera eggs were pipetted through a plastic stencil onto a humid gel blotting paper and the lid plate was closed with it. The samples were assessed for mortality, anti-feedant effect and growth inhibition in comparison to untreated samples 6 days after infestation.

[11] = tested on: Bemisia tabaci (cotton white fly); assay: Example B3: Bemisia tabaci (cotton white fly), feeding/contact activity; conditions: foliar, 144 h, application rate of 200 ppm, 6 days after incubation, adult white flies on cotton leaf discs
Method: Example B3: Bemisia tabaci (Cotton White Fly): Feeding/Contact Activity
Cotton leaf discs were placed on agar in 24-well microtiter plates and sprayed with aqueous test solutions prepared from 10′000 ppm DMSO stock solutions. After drying the leaf discs were infested with adult white flies. The samples were checked for mortality 6 days after incubation.

CC(NC(=O)c1cc(OCC(F)F)cc(C(F)(F)F)c1)c1nccnc1-c1ccc(OCC(F)F)cn1 (stereo not drawn) [Compound P16, 3-(2,2-difluoroethoxy)-N-[1-[3-[5-(2,2-difluoroethoxy)-2-pyridyl]pyrazin-2-yl]ethyl]-5-(trifluoromethyl)benzamide]
≥ 80%: mortality at 500 ppm [1] | control at 200 ppm [2] | percent control (mortality or growth inhibition) at 200 ppm [3] | mortality at 200 ppm [4]

CC(NC(=O)c1cc(OC(F)F)cc(C(F)(F)F)c1)c1nccnc1-c1ncc(OCC(F)F)cn1 (stereo not drawn) [Compound P28, N-[1-[3-[5-(2,2-difluoroethoxy)pyrimidin-2-yl]pyrazin-2-yl]ethyl]-3-(difluoromethoxy)-5-(trifluoromethyl)benzamide]
≥ 80%: percent control (mortality, anti-feeding or growth inhibition) at 200 ppm [5] | mortality at 500 ppm [1] | control at 200 ppm [2] | percent control (mortality or growth inhibition) at 200 ppm [3] | percent control (mortality or growth inhibition) at 200 ppm [6] | percent control (mortality or growth inhibition) at 200 ppm [7] | mortality at 50 ppm [8] | mortality at 12 ppm [9]

C[C@H](NC(=O)c1cc(C(F)(F)F)cc(C(F)(F)F)c1)c1nccnc1-c1ccc(OC(F)F)cn1 [Compound P24, N-[(1S)-1-[3-[5-(difluoromethoxy)-2-pyridyl]pyrazin-2-yl]ethyl]-3,5-bis(trifluoromethyl)benzamide]
≥ 80%: percent control (mortality, anti-feeding or growth inhibition) at 200 ppm [5] | mortality at 500 ppm [1] | control at 200 ppm [2] | percent control (mortality or growth inhibition) at 200 ppm [3] | percent control (mortality or growth inhibition) at 200 ppm [6] | percent control (mortality or growth inhibition) at 200 ppm [7] | percent control (mortality, anti-feeding or growth inhibition) at 12.5 ppm [10]

CC(NC(=O)c1cc(Br)cc(C(F)(F)F)c1)c1nccnc1-c1ncc(OCC(F)F)cn1 (stereo not drawn) [Compound P35, 3-bromo-N-[1-[3-[5-(2,2-difluoroethoxy)pyrimidin-2-yl]pyrazin-2-yl]ethyl]-5-(trifluoromethyl)benzamide]
≥ 80%: percent control (mortality, anti-feeding or growth inhibition) at 200 ppm [5] | control at 200 ppm [2] | mortality at 200 ppm [11] | percent control (mortality or growth inhibition) at 200 ppm [3] | percent control (mortality or growth inhibition) at 200 ppm [6] | percent control (mortality or growth inhibition) at 200 ppm [7] | percent control (mortality, anti-feeding or growth inhibition) at 12.5 ppm [10] | mortality at 12 ppm [9]

CC(NC(=O)c1cc(Cl)cc(C(F)(F)F)c1)c1nccnc1-c1ncc(OCC(F)(F)F)cn1 (stereo not drawn) [Compound P37, 3-chloro-N-[1-[3-[5-(2,2,2-trifluoroethoxy)pyrimidin-2-yl]pyrazin-2-yl]ethyl]-5-(trifluoromethyl)benzamide]
≥ 80%: percent control (mortality, anti-feeding or growth inhibition) at 200 ppm [5] | control at 200 ppm [2] | percent control (mortality or growth inhibition) at 200 ppm [3] | percent control (mortality or growth inhibition) at 200 ppm [6] | percent control (mortality or growth inhibition) at 200 ppm [7] | percent control (mortality, anti-feeding or growth inhibition) at 12.5 ppm [10]

CC(NC(=O)c1cc(Br)cc(C(F)(F)F)c1)c1nccnc1-c1ncc(OC(F)F)cn1 (stereo not drawn) [Compound P23, 3-bromo-N-[1-[3-[5-(difluoromethoxy)pyrimidin-2-yl]pyrazin-2-yl]ethyl]-5-(trifluoromethyl)benzamide]
≥ 80%: percent control (mortality, anti-feeding or growth inhibition) at 200 ppm [5] | mortality at 500 ppm [1] | control at 200 ppm [2] | percent control (mortality or growth inhibition) at 200 ppm [3] | percent control (mortality or growth inhibition) at 200 ppm [6] | percent control (mortality, anti-feeding or growth inhibition) at 12.5 ppm [10] | mortality at 50 ppm [8] | mortality at 12 ppm [9]

CC(NC(=O)c1cc(OC(F)F)cc(C(F)(F)F)c1)c1nccnc1-c1ncc(OC(F)F)cn1 (stereo not drawn) [Compound P26, 3-(difluoromethoxy)-N-[1-[3-[5-(difluoromethoxy)pyrimidin-2-yl]pyrazin-2-yl]ethyl]-5-(trifluoromethyl)benzamide]
≥ 80%: percent control (mortality, anti-feeding or growth inhibition) at 200 ppm [5] | mortality at 500 ppm [1] | control at 200 ppm [2] | percent control (mortality or growth inhibition) at 200 ppm [3] | percent control (mortality or growth inhibition) at 200 ppm [6] | mortality at 50 ppm [8] | mortality at 12 ppm [9]
